Assay results taken from ChEMBL document CHEMBL1201862, “PubChem BioAssay data set” (2004).
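Following 48 hours of exposure in 96-well plates, responses at five concentrations were used to interpolate endpoints linearly. Abbreviation: GI50, concentration required for 50% inhibition of growth.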 Active and inactive are the calls of the source. Cut-off read from the data, not from the text of the source: active = GI50 up to about 1.1 µM and inactive = higher.

What was measured:
Assay in all cases: inhibition of tumour cell growth, NCI panel, 48 h
CAKI-1 = tested on: CAKI-1
SK-MEL-2 = tested on: SK-MEL-2
SW-620 = tested on: SW-620
UACC-62 = tested on: UACC-62
RPMI-8226 = tested on: RPMI-8226
786-0 = tested on: 786-0
SK-OV-3 = tested on: SK-OV-3
CCRF-CEM = tested on: CCRF-CEM
OVCAR-3 = tested on: OVCAR-3
HOP-62 = tested on: HOP-62
COLO 205 = tested on: COLO 205
SF-539 = tested on: SF-539
ACHN = tested on: ACHN
OVCAR-4 = tested on: OVCAR-4

| Compound | GI50 (CAKI-1) | GI50 (SK-MEL-2) | GI50 (SW-620) | GI50 (UACC-62) | GI50 (RPMI-8226) | GI50 (786-0) | GI50 (SK-OV-3) | GI50 (CCRF-CEM) | GI50 (OVCAR-3) | GI50 (HOP-62) | GI50 (COLO 205) | GI50 (SF-539) | GI50 (ACHN) | GI50 (OVCAR-4) |
| --- | --- | --- | --- | --- | --- | --- | --- | --- | --- | --- | --- | --- | --- | --- |
| O=c1cc(O)cc2n1CCC2 | > 100 µM (inactive) | > 100 µM (inactive) | > 100 µM (inactive) | > 100 µM (inactive) | > 100 µM (inactive) | > 100 µM (inactive) | > 100 µM (inactive) | > 100 µM (inactive) | > 100 µM (inactive) | > 100 µM (inactive) | > 100 µM (inactive) | > 100 µM (inactive) | > 100 µM (inactive) | – |
| COC(=O)/C(=N\NC(N)=O)C(C(=O)C(=O)Nc1ccccc1C(=O)OC)c1nc2ccc(C(=O)c3ccccc3)cc2nc1O (configuration not stated) | > 100 µM (inactive) | > 100 µM (inactive) | > 100 µM (inactive) | > 100 µM (inactive) | > 100 µM (inactive) | > 100 µM (inactive) | > 100 µM (inactive) | > 100 µM (inactive) | > 100 µM (inactive) | > 100 µM (inactive) | – | > 100 µM (inactive) | > 100 µM (inactive) | > 100 µM (inactive) |
| COc1ccc(/C(=N\NC(=O)C(=O)NN)C(c2ccc(OC)cc2)C2(O)C(=O)Nc3ccccc32)cc1 (configuration not stated) | > 100 µM (inactive) | 69.7 µM (inactive) | > 100 µM (inactive) | 45.3 µM (inactive) | 69.7 µM (inactive) | 28.1 µM (inactive) | > 100 µM (inactive) | > 10 µM (inactive) | > 100 µM (inactive) | 94.8 µM (inactive) | > 100 µM (inactive) | 80.7 µM (inactive) | 82.2 µM (inactive) | – |
| Cc1ccccc1C(=O)Oc1ccc(O)cc1 | > 100 µM (inactive) | > 100 µM (inactive) | > 100 µM (inactive) | > 100 µM (inactive) | > 100 µM (inactive) | > 100 µM (inactive) | > 100 µM (inactive) | > 100 µM (inactive) | > 100 µM (inactive) | > 100 µM (inactive) | > 100 µM (inactive) | > 100 µM (inactive) | > 100 µM (inactive) | > 100 µM (inactive) |
| CCOC(=O)C(=O)Nc1cccc(Cl)c1C | > 100 µM (inactive) | > 100 µM (inactive) | > 100 µM (inactive) | > 100 µM (inactive) | > 100 µM (inactive) | > 100 µM (inactive) | > 100 µM (inactive) | > 100 µM (inactive) | > 100 µM (inactive) | > 100 µM (inactive) | > 100 µM (inactive) | > 100 µM (inactive) | > 100 µM (inactive) | > 100 µM (inactive) |
| N#CCCN(c1ccc(C=O)cc1)S(=O)(=O)c1ccccc1 | > 100 µM (inactive) | > 100 µM (inactive) | > 100 µM (inactive) | > 100 µM (inactive) | > 100 µM (inactive) | > 100 µM (inactive) | > 100 µM (inactive) | – | > 100 µM (inactive) | > 100 µM (inactive) | – | > 100 µM (inactive) | > 100 µM (inactive) | > 100 µM (inactive) |
| Cn1c(=O)nc2n(-c3ccc(Cl)cc3)c3ccc(Cl)cc3nc-2c1=O | 4.45 µM (inactive) | 4.36 µM (inactive) | 4.44 µM (inactive) | 1.07 µM (active) | – | 12.2 µM (inactive) | 88.7 µM (inactive) | 13.6 µM (inactive) | 2.57 µM (inactive) | 18 µM (inactive) | – | – | – | – |
| Cc1cc(O)nc(CNC(=O)Cc2ccccc2)n1 | > 100 µM (inactive) | > 100 µM (inactive) | > 100 µM (inactive) | > 100 µM (inactive) | > 100 µM (inactive) | > 100 µM (inactive) | > 100 µM (inactive) | > 100 µM (inactive) | > 100 µM (inactive) | > 100 µM (inactive) | > 100 µM (inactive) | > 100 µM (inactive) | > 100 µM (inactive) | > 100 µM (inactive) |
| CC1=COC(=O)c2ccccc2N1 | > 100 µM (inactive) | > 100 µM (inactive) | > 100 µM (inactive) | > 100 µM (inactive) | > 100 µM (inactive) | > 100 µM (inactive) | > 100 µM (inactive) | > 100 µM (inactive) | > 100 µM (inactive) | > 100 µM (inactive) | > 100 µM (inactive) | > 100 µM (inactive) | > 100 µM (inactive) | > 100 µM (inactive) |
| CCN(CC)CCNC(=O)c1ccccc1NC(=O)C(=O)Nc1ccccc1C(=O)NCCN(CC)CC | > 100 µM (inactive) | 43 µM (inactive) | 18.5 µM (inactive) | > 100 µM (inactive) | > 100 µM (inactive) | 20.6 µM (inactive) | > 100 µM (inactive) | 30.3 µM (inactive) | 62.7 µM (inactive) | > 100 µM (inactive) | 14.1 µM (inactive) | 24.1 µM (inactive) | 92.3 µM (inactive) | 64.1 µM (inactive) |
| O=C(Nc1ccc(C(F)(F)F)cc1[N+](=O)[O-])C(=O)C(C(=O)c1ccc2ccccc2c1)C1OC(=O)c2ccccc21 (configuration not stated) | 8.26 µM (inactive) | 13 µM (inactive) | 4.78 µM (inactive) | 5.6 µM (inactive) | 4.11 µM (inactive) | 5.56 µM (inactive) | 26.5 µM (inactive) | 3.7 µM (inactive) | 12.8 µM (inactive) | 5.74 µM (inactive) | 8.75 µM (inactive) | 1.63 µM (inactive) | 13.3 µM (inactive) | 20.6 µM (inactive) |
| COc1cc2ccc3c4cc(OC)c(OC)cc4c[n+](C)c3c2cc1O | > 100 µM (inactive) | > 100 µM (inactive) | > 100 µM (inactive) | > 100 µM (inactive) | > 100 µM (inactive) | > 100 µM (inactive) | > 100 µM (inactive) | > 100 µM (inactive) | 67.5 µM (inactive) | > 92.5 µM (inactive) | > 90.8 µM (inactive) | > 100 µM (inactive) | > 42.2 µM (inactive) | > 81.8 µM (inactive) |
| CCOC(=O)C(C(=O)c1ccccc1)=C1NCCN1 | > 100 µM (inactive) | > 100 µM (inactive) | > 100 µM (inactive) | > 100 µM (inactive) | > 100 µM (inactive) | > 100 µM (inactive) | – | > 100 µM (inactive) | > 100 µM (inactive) | > 100 µM (inactive) | > 100 µM (inactive) | > 100 µM (inactive) | > 100 µM (inactive) | > 100 µM (inactive) |
| O=C(N/N=C/c1cccc(O)c1O)N/N=C/c1cccc(O)c1O | – | 24 µM (inactive) | 17.5 µM (inactive) | 11.9 µM (inactive) | 19.8 µM (inactive) | 15.1 µM (inactive) | > 100 µM (inactive) | 3.5 µM (inactive) | 2.51 µM (inactive) | – | > 100 µM (inactive) | 4.92 µM (inactive) | 13.9 µM (inactive) | 28.2 µM (inactive) |
| FC(F)(F)c1ccc(/C=N/C23CC4CC(CC(C4)C2)C3)cc1 | > 100 µM (inactive) | > 100 µM (inactive) | > 100 µM (inactive) | > 100 µM (inactive) | > 100 µM (inactive) | > 100 µM (inactive) | > 100 µM (inactive) | > 100 µM (inactive) | > 100 µM (inactive) | > 100 µM (inactive) | > 100 µM (inactive) | > 100 µM (inactive) | > 100 µM (inactive) | > 100 µM (inactive) |
| CCCCNC(=O)NNC(=O)c1cc(/C=C/c2cccc([N+](=O)[O-])c2)ncn1 | > 100 µM (inactive) | > 100 µM (inactive) | 16.7 µM (inactive) | > 100 µM (inactive) | 25.4 µM (inactive) | > 100 µM (inactive) | > 100 µM (inactive) | > 100 µM (inactive) | > 100 µM (inactive) | > 100 µM (inactive) | > 100 µM (inactive) | – | > 100 µM (inactive) | – |
| CCCCN(CC)C(=O)C(=O)C1C(=O)Nc2ccccc2[S+]1[O-] (configuration not stated) | > 100 µM (inactive) | > 100 µM (inactive) | > 100 µM (inactive) | > 100 µM (inactive) | > 100 µM (inactive) | > 100 µM (inactive) | > 100 µM (inactive) | > 100 µM (inactive) | > 100 µM (inactive) | > 100 µM (inactive) | > 100 µM (inactive) | > 100 µM (inactive) | > 100 µM (inactive) | > 100 µM (inactive) |
| CCN1N=CSC12C(=O)N(c1ccccc1)C(=O)N2c1ccccc1 (configuration not stated) | > 100 µM (inactive) | – | > 100 µM (inactive) | > 100 µM (inactive) | – | > 100 µM (inactive) | > 100 µM (inactive) | > 100 µM (inactive) | > 100 µM (inactive) | > 100 µM (inactive) | > 100 µM (inactive) | > 100 µM (inactive) | > 100 µM (inactive) | > 100 µM (inactive) |
| CC(C)(C)C1CCC(=O)C(C(O)CC2CC(=O)N(c3ccccc3)C(=O)C2)C1 (configuration not stated) | > 100 µM (inactive) | – | > 100 µM (inactive) | > 100 µM (inactive) | 73.1 µM (inactive) | > 100 µM (inactive) | > 100 µM (inactive) | 53.1 µM (inactive) | > 100 µM (inactive) | > 100 µM (inactive) | > 100 µM (inactive) | > 100 µM (inactive) | > 100 µM (inactive) | > 100 µM (inactive) |
| COc1ccc(C2Cc3cc(OC)c(OC)c(OC)c3C2=O)cc1 (configuration not stated) | > 100 µM (inactive) | > 100 µM (inactive) | > 100 µM (inactive) | > 100 µM (inactive) | > 100 µM (inactive) | > 100 µM (inactive) | > 100 µM (inactive) | > 100 µM (inactive) | > 100 µM (inactive) | > 100 µM (inactive) | > 100 µM (inactive) | > 100 µM (inactive) | > 100 µM (inactive) | > 100 µM (inactive) |
